Source: US20240197650A1, “Combination of Cinnamaldheyde and Eugenol with Antimycotic Activity” (priority 2021, published 2024)
One block for each compound: values may come before it.

Key:
C. albicans = assay: Disk diffusion method, C. albicans strains; type: cell-based
Description: (§1) A total of eighteen strains belonging to Candida spp. (15 C. albicans, 2 C. glabrata and 1 C. lusitaniae) derived from a collection of vaginal strains isolated in CHROMAgar Candida (BD Italia SpA, Milan, Italy) were grown on Potato Dextrose Agar (Oxoid Thermofisher SpA, Milan, Italy) at 35° C. for 24 hours.
(§2) Colonies were re-suspended in sterile saline at a density corresponding to #0.5 McFarland (opacity standard). #0.5 McF correspond to 1.4×10^6 colony forming units (CFU)/ml for C. albicans, 4.3×10^6 CFU/ml for C. glabrata and 3×10^6 CFU/ml for C. lusitaniae [Guinea J. et al., Rapid antifungal susceptibility determination for yeast isolates by use of Etest performed directly on blood samples from patients with fungemia, J Clin Microbiol. 2010 June, 48(6): 2205-12]. Then, the sensitivity test vs the two oils has been performed. The disk diffusion method was carried out as follows: for each tested strain, 4 plates of Potato Dextrose Agar (PDA) were seeded in 3 directions to produce a confluent growth, by sterile swab soaked in the cell suspension. Sorbent paper disks (Oxoid Thermofisher SpA, Milan, Italy) 6.0 mm diameter were placed on the agar surface and added with 10 μl of each essential oil. Disks soaked with 10 μg amphotericin B were used as positive control. Also disks of chlortrimazole (from 10 μg to 40 μg) were used, but the inhibition rings could not be clearly read due to the formation of a re-growth ring. Disks soaked with 10 μl pure dimethylsulphoxide (DMSO, Sigma-Aldrich, St. Louis, MO, USA) were used as negative control. The plates were incubated at 35° C. for 24 hours. All the experiments were carried out in duplicate. The inhibiting effect of the oils were considered to be effective when the inhibition ring was equal or greater than that caused by amphotericin B. For amphotericin B, an inhibition zone (IZ)≥15 mm was considered as “sensitivity”, from 10 to 14 mm as “intermediate sensitivity” and <10 mm as “resistance” [Kauser et al., Agreement of Direct Antifungal Susceptibility Testing from Positive Blood Culture Bottles with Conventional Method for Candida Species, J Clin Microbiol. 2016 February, 54(2):343-34].

C. glabrata = assay: Disk diffusion method, C. glabrata strains; type: cell-based
Description: as §1, §2

C. lusitaniae = assay: Disk diffusion method, C. lusitaniae strain; type: cell-based; details: C. lusitaniae 1
Description: as §1
Colonies were re-suspended in sterile saline at a density corresponding to #0.5 McFarland (opacity standard). #0.5 McF correspond to 1.4×10^6 colony forming units (CFU)/ml for C. albicans, 4.3×10^6 CFU/ml for C. glabrata and 3×10^6 CFU/ml for C. lusitaniae [Guinea J. et al., Rapid antifungal susceptibility determination for yeast isolates by use of Etest performed directly on blood samples from patients with fungemia, J Clin Microbiol. 2010 June, 48(6): 2205-12]. Then, the sensitivity test vs the two oils has been performed. The disk diffusion method was carried out as follows: for each tested strain, 4 plates of Potato Dextrose Agar (PDA) were seeded in 3 directions to produce a confluent growth, by sterile swab soaked in the cell suspension. Sorbent paper disks (Oxoid Thermofisher SpA, Milan, Italy) 6.0 mm diameter were placed on the agar surface and added with 10 μl of each essential oil. Disks soaked with 10 μg amphotericin B were used as positive control. Also disks of chlortrimazole (from 10 μg to 40 μg) were used, but the inhibition rings could not be clearly read due to the formation of a re-growth ring. Disks soaked with 10 μl pure dimethylsulphoxide (DMSO, Sigma-Aldrich, St. Louis, MO, USA) were used as negative control. The plates were incubated at 35° C. for 24 hours. All the experiments were carried out in duplicate. […]

Candida spp. = assay: Microdilution method MIC/MFC, 18 Candida spp. strains (distribution); type: cell-based; details: 18 strains
Description: as §1
The antifungal activity of amphotericin B and of cinnamaldheyde and eugenol were tested with the microdilution method as reported by Bona et al. [Bona et al., Sensitivity of Candida albicans to essential oils: are they an alternative to antifungal agents? J Appl Microbiol. 2016 December, 121(6): 1530-1545] with small changes. All the 18 Candida spp strains were tested. For each isolated, the colonies deriving from cultures (24 hours) in PDA were diluted in saline up to a concentration of 2×10^3 CFU/ml (so obtaining a final concentration of 10 3CGU/ml). Cinnamaldehyde and eugenol were dissolved in DMSO (80% oil, 20% DMSO), then diluted in Sabouraud broth up to a concentration of 8% v/v (so obtaining a final concentration of 4% v/v). Then, in a 96-well microtiter plate ½ serial dilution of amphotericin B (range 32-0.032 μg/ml, for a final range of 16-0.016 μg/ml) and of the essential oils (range 8-0.004% v/v, for a final range of 4-0.002% v/v) were carried out. Each well was then injected with 100 μl of cell suspension. The negative control contained DMSO diluted in Sabouraud broth (at 2% v/v, for a final concentration of 1% v/v). […] Each experiment was carried out in duplicate. The Minimum Inhibitory Concentration (MIC) was determined as the concentration of the oils in the first well which is not cloudy. The Minimum Fungicidal Concentration (MFC) was determined as the lowest concentration of the oils, with the agar culture showing the complete absence of fungal growth. The determination of the amphotericin B MIC was carried out also according to the EUCAST guidelines (cutoff 1 μg/ml) [https://eucast.org/astoffungi/clinicalbreakpointsforantifungals], all the results being consistent.

[1] = test system: L. acidophilus strain La-14; assay: Disk diffusion vs L. acidophilus; type: cell-based, Lactobacillus acidophilus; details: 10 μl oil per disk; MRS agar, 37° C. 24 hours, anaerobiosis
Description: The antibacterial activity of cinnamaldheyde and eugenol vs L. acidophilus was studied by using the disk diffusion method (reading scheme as reported in FIG. 1) and the microdilution method (reading scheme as reported in FIG. 2). A L. acidophilus strain named La-14 (Danisco SpA, Milan, Italy) was tested.
Colonies deriving from a 24-hour culture in DeManRogosaSharpe agar (MRS, OXOID SpA, Milan, Italy) were suspended in saline up to a concentration corresponding to #0.5 McFarland. A total of 3 plates of MRS agar were seeded in 3 directions to produce a confluent growth, by sterile swab soaked in the bacterial suspension. Sorbent paper disks 6.0 mm diameter were placed on each plate and soaked with 10 μl of each oil. Disks soaked with […] pure DMSO were used as negative control. The plates were incubated at 37° C. for 24 hours in anaerobiosis (anaerogen gaspack, OXOID SpA, Milan, Italy). The experiment was carried out in duplicate.

[2] = test system: L. acidophilus strain La-14; assay: Microdilution vs L. acidophilus; type: cell-based, Lactobacillus acidophilus; details: for MIC vs L. acidophilus: MRS broth, 37° C. 48 hours, anaerobiosis; for MIC vs L. acidophilus relative to the observed maximum MIC vs Candida spp: maximum MIC in 2 strains out of 18 only
Description: The antibacterial activity of […] eugenol vs L. acidophilus was studied by using the disk diffusion method (reading scheme as reported in FIG. 1) and the microdilution method (reading scheme as reported in FIG. 2). A L. acidophilus strain named La-14 (Danisco SpA, Milan, Italy) was tested. The essential oils (80% oil, 20% DMSO) were dissolved in MRS broth up to a concentration of 8% v/v (so obtaining a final concentration of 4% v/v). In a 96-well microtiter plate, 1⁄2 serial dilutions of the oils were carried out (volume: 100 μl. […] Each well was then injected with 100 μl of the cell suspension. The microtiter plates were incubated at 37° C. for 48 hours in anaerobiosis. MIC was determined as the concentration of the oils in the first well which is not cloudy. The experiment was carried out in duplicate.

Compound: O=CC=Cc1ccccc1 [Cinnamaldheyde, cinnamaldehyde]
Diameters of the inhibition rings (including 6.0 mm of the disk) (C. albicans; C. albicans 1): 65.0 mm
Diameters of the inhibition rings (including 6.0 mm of the disk) (C. albicans; C. albicans 2): 70.0 mm
Diameters of the inhibition rings (including 6.0 mm of the disk) (C. albicans; C. albicans 3): 67.0 mm
Diameters of the inhibition rings (including 6.0 mm of the disk) (C. albicans; C. albicans 4): 66.0 mm
Diameters of the inhibition rings (including 6.0 mm of the disk) (C. albicans; C. albicans 5): 71.0 mm
Diameters of the inhibition rings (including 6.0 mm of the disk) (C. albicans; C. albicans 6): 67.0 mm
Diameters of the inhibition rings (including 6.0 mm of the disk) (C. albicans; C. albicans 7): 75.0 mm
Diameters of the inhibition rings (including 6.0 mm of the disk) (C. albicans; C. albicans 8): 67.0 mm
Diameters of the inhibition rings (including 6.0 mm of the disk) (C. albicans; C. albicans 9): 70.5 mm
Diameters of the inhibition rings (including 6.0 mm of the disk) (C. albicans; C. albicans 10): 72.5 mm
Diameters of the inhibition rings (including 6.0 mm of the disk) (C. albicans; C. albicans 11): 75.0 mm
Diameters of the inhibition rings (including 6.0 mm of the disk) (C. albicans; C. albicans 12): 75.0 mm
Diameters of the inhibition rings (including 6.0 mm of the disk) (C. albicans; C. albicans 13): 71.0 mm
Diameters of the inhibition rings (including 6.0 mm of the disk) (C. albicans; C. albicans 14): 75.0 mm
Diameters of the inhibition rings (including 6.0 mm of the disk) (C. albicans; C. albicans 15): 70.0 mm
Diameters of the inhibition rings (including 6.0 mm of the disk) (C. glabrata; C. glabrata 1): 55.0 mm
Diameters of the inhibition rings (including 6.0 mm of the disk) (C. glabrata; C. glabrata 2): 55.0 mm
Diameters of the inhibition rings (including 6.0 mm of the disk) (C. lusitaniae): 75.0 mm
MFC average (Candida spp.): 0.01 % v/v
MIC average (Candida spp.): 0.0048 % v/v
inhibition ring diameter [1]: 10 mm
MIC vs L. acidophilus relative to the average MIC vs Candida spp [2]: about 6.7 fold
MIC vs L. acidophilus [2]: 0.032 % v/v
MIC vs L. acidophilus relative to the observed maximum MIC vs Candida spp [2]: double

MIC average (Candida spp.): 0.043 % v/v
MIC vs L. acidophilus relative to the average MIC vs Candida spp [2]: about 6 fold
MIC vs L. acidophilus [2]: 0.25 % v/v
MIC vs L. acidophilus relative to the observed maximum MIC vs Candida spp [2]: double
Compound: C=CCc1ccc(O)c(OC)c1 [Eugenol, eugenol]
Diameters of the inhibition rings (including 6.0 mm of the disk) (C. albicans; C. albicans 1): 35.0 mm
Diameters of the inhibition rings (including 6.0 mm of the disk) (C. albicans; C. albicans 2): 35.0 mm
Diameters of the inhibition rings (including 6.0 mm of the disk) (C. albicans; C. albicans 3): 33.0 mm
Diameters of the inhibition rings (including 6.0 mm of the disk) (C. albicans; C. albicans 4): 35.0 mm
Diameters of the inhibition rings (including 6.0 mm of the disk) (C. albicans; C. albicans 5): 35.0 mm
Diameters of the inhibition rings (including 6.0 mm of the disk) (C. albicans; C. albicans 6): 36.0 mm
Diameters of the inhibition rings (including 6.0 mm of the disk) (C. albicans; C. albicans 7): 44.0 mm
Diameters of the inhibition rings (including 6.0 mm of the disk) (C. albicans; C. albicans 8): 41.0 mm
Diameters of the inhibition rings (including 6.0 mm of the disk) (C. albicans; C. albicans 9): 34.0 mm
Diameters of the inhibition rings (including 6.0 mm of the disk) (C. albicans; C. albicans 10): 34.5 mm
Diameters of the inhibition rings (including 6.0 mm of the disk) (C. albicans; C. albicans 11): 34.0 mm
Diameters of the inhibition rings (including 6.0 mm of the disk) (C. albicans; C. albicans 12): 34.0 mm
Diameters of the inhibition rings (including 6.0 mm of the disk) (C. albicans; C. albicans 13): 35.0 mm
Diameters of the inhibition rings (including 6.0 mm of the disk) (C. albicans; C. albicans 14): 34.0 mm
Diameters of the inhibition rings (including 6.0 mm of the disk) (C. albicans; C. albicans 15): 34.0 mm
Diameters of the inhibition rings (including 6.0 mm of the disk) (C. glabrata; C. glabrata 1): 35.0 mm
Diameters of the inhibition rings (including 6.0 mm of the disk) (C. glabrata; C. glabrata 2): 30.5 mm
Diameters of the inhibition rings (including 6.0 mm of the disk) (C. lusitaniae): 43.0 mm
MFC average (Candida spp.): 0.067 % v/v
inhibition ring diameter [1]: did not produced any inhibition ring
